In patent US11076595B2, “1-(n,n-disubstituted carbamoyl) 4-(substituted sulfonyl)triazolin-5-one derivative, 4-(n,n-disubstituted carbamoyl) 1-(substituted sulfonyl)triazolin-5-one derivative, and herbicide containing said derivative as active ingredient” (HOKKO CHEMICAL INDUSTRY CO., LTD., priority 2017, dated 2021):

Assays:
Assay type in all cases: in vivo
Lindernia pyxidaria [1] = assay: Test Example 11: herbicidal effect test by soil treatment in paddy field; conditions: 120 g/10a active ingredient, 14 days after treatment
Procedure, shortened: (§1)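 Weed suppression rate (%) was calculated as (1 − mean treated dry weight / mean untreated dry weight) × 100 at 14 days after treatment, two replicates per plot. Seeds were sown at 0–1 cm in flooded (about 3 cm) puddled paddy soil and treated immediately at 120 g active ingredient per 10 are.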

Scirpus juncoides [2] = assay: as above; conditions: 120 g/10a active ingredient, 14 days after treatment
Procedure, shortened: as §1

Echinochloa crus-galli [3] = assay: as above; conditions: 120 g/10a active ingredient, 14 days after treatment
Procedure, shortened: as §1

Monochoria vaginalis [4] = assay: as above; conditions: 120 g/10a active ingredient, 14 days after treatment
Procedure, shortened: as §1

Lindernia pyxidaria [5] = assay: Test Example 12: herbicidal effect test by treatment during growing period in paddy field; conditions: 120 g/10a; treatment seven days after sowing in flooded paddy pot; assessed 14 days after treatment
Procedure, shortened: (§2)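 Puddled paddy soil in Wagner pots, 30 seeds per species sown 0-1 cm deep, flooded to about 3 cm in a greenhouse. Seven days after sowing, water-diluted emulsifiable concentrate was dripped in at 120 g active ingredient per 10 are. Suppression (%) from dry weight versus untreated at 14 days, two replicates.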

Scirpus juncoides [6] = assay: as above; conditions: 120 g/10a; treatment seven days after sowing in flooded paddy pot; assessed 14 days after treatment
Procedure, shortened: as §2

Echinochloa crus-galli [7] = assay: as above; conditions: 120 g/10a; treatment seven days after sowing in flooded paddy pot; assessed 14 days after treatment
Procedure, shortened: as §2

Monochoria vaginalis [8] = assay: as above; conditions: 120 g/10a; treatment seven days after sowing in flooded paddy pot; assessed 14 days after treatment
Procedure, shortened: as §2

SMILES | Weed suppression rate (%) Lindemia pyxidaria (Lindernia pyxidaria [1]) [%] | Weed suppression rate (%) Scirpus juncoides (Scirpus juncoides [2]) [%] | Weed suppression rate (%) Echinochloa crus-galli (Echinochloa crus-galli [3]) [%] | Weed suppression rate (%) Monochoria vaginalis (Monochoria vaginalis [4]) [%] | Weed suppression rate (%) Lindemia pyxidaria (Lindernia pyxidaria [5]) [%] | Weed suppression rate (%) Scirpus juncoides (Scirpus juncoides [6]) [%] | Weed suppression rate (%) Echinochloa crus-galli (Echinochloa crus-galli [7]) [%] | Weed suppression rate (%) Monochoria vaginalis (Monochoria vaginalis [8]) [%]
O=C(N(CC(F)(F)F)c1ccc(F)cc1F)n1cnn(S(=O)(=O)C2CCCCC2)c1=O [Compound 11-1156] | 80 | 30 | 70 | 30 | 90 | 30 | 90 | 60
CC(C)N(Cc1ccc(F)cc1F)C(=O)n1cnn(S(=O)(=O)N(C)C)c1=O [Compound 11-1088] | 80 | 90 | 90 | 80 | 80 | 90 | 90 | 80
CC(C)N(C(=O)n1cnn(S(=O)(=O)c2ccccc2)c1=O)c1ccc(Cl)cc1 [Compound 11-361] | 80 | 90 | 90 | 80 | 80 | 90 | 90 | 80
Cc1cc(C)c(S(=O)(=O)n2ncn(C(=O)N(c3ccc(F)cc3)C(C)C)c2=O)c(C)c1 [Compound 11-855] | 90 | 90 | 100 | 90 | 60 | 80 | 80 | 80
CC(C)N(C(=O)n1cnn(S(=O)(=O)c2c(F)cccc2F)c1=O)c1c(F)cc(F)cc1F [Compound 11-777] | 90 | 100 | 100 | 80 | 70 | 70 | 90 | 80
CC(C)N(C(=O)n1cnn(S(=O)(=O)c2ccc(F)cc2)c1=O)c1ccc(F)c(F)c1F [Compound 11-478] | 100 | 100 | 100 | 100 | 70 | 100 | 100 | 90
CC(C)N(C(=O)n1cnn(S(=O)(=O)c2cccs2)c1=O)c1ccc(F)cc1 [Compound 11-1014] | 90 | 90 | 90 | 80 | 80 | 90 | 90 | 80
CC(C)N(C(=O)n1cnn(S(=O)(=O)c2ccc(C(C)(C)C)cc2)c1=O)c1ccccc1F [Compound 11-672] | 80 | 90 | 90 | 80 | 80 | 90 | 90 | 80
CCS(=O)(=O)n1ncn(C(=O)N(C)c2ccc(F)cc2F)c1=O [Compound 11-1126] | 90 | 100 | 100 | 70 | 70 | 100 | 100 | 70
CC(C)N(C(=O)n1cnn(S(=O)(=O)C(C)C)c1=O)c1cccc(F)c1 [Compound 11-50] | 80 | 90 | 90 | 80 | 80 | 90 | 90 | 80
